How the values were obtained:
Experiment in all cases: relative viability (nuclei count vs DMSO), 5 days (fraction); higher = more cells survive
[1] = compound: CC1=NN=C(O1)C2=NN=C(C=C2)N3CCC(CC3)OC4=C(C=CC(=C4)F)Cl + CC1(C)CCC(c2ccc(Cl)cc2)=C(CN2CCN(c3ccc(C(=O)NS(=O)(=O)c4ccc(N[C@H](CCN5CCOCC5)CSc5ccccc5)c(S(=O)(=O)C(F)(F)F)c4)cc3)CC2)C1 [Navitoclax] (partner 0.5 µM)
Procedure, shortened: (§1)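 Lung cancer cell lines were pin-tool dosed in 1536-well plates on the day after seeding, with either a lone drug or a fixed anchor-drug dose plus five library-drug doses (not always all listed) in √10 steps. Nuclei were counted on 4× images after 5 days. Relative viability is the ratio of treated-well to vehicle-well nuclei counts, with each value a median of duplicate plates.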

[2] = compound: CC(C)C[C@@H](C(=O)N[C@H](C(=O)OC1CCCC1)c1ccccc1)[C@H](O)C(=O)NO [Tosedostat] + O=C(CCCCCCC(=O)Nc1ccccc1)NO [Vorinostat] (partner 1 µM)
Procedure, shortened: as §1

[3] = compound: CC(C)C[C@@H](C(=O)N[C@H](C(=O)OC1CCCC1)c1ccccc1)[C@H](O)C(=O)NO [Tosedostat] + COc1cccc2cc(-c3nc([C@H]4CC[C@H](C(=O)O)CC4)n4ncnc(N)c34)[nH]c12 [OSI-027] (partner 0.5 µM)
Procedure, shortened: as §1

[4] = compound: CC1=NN=C(O1)C2=NN=C(C=C2)N3CCC(CC3)OC4=C(C=CC(=C4)F)Cl + C[C@]1(O)C[C@@H](c2nc(-c3ccc4ccc(-c5ccccc5)nc4c3)c3c(N)nccn32)C1 [Linsitinib] (partner 1 µM)
Procedure, shortened: as §1

Cell Line | relative viability ([1]; first compound 0.253 µM) | relative viability ([1]; first compound 0.8 µM) | relative viability ([1]; first compound 2.53 µM) | relative viability ([1]; first compound 8 µM) | relative viability ([2]; first compound 0.02 µM) | relative viability ([2]; first compound 0.06325 µM) | relative viability ([2]; first compound 0.2 µM) | relative viability ([2]; first compound 0.6325 µM) | relative viability ([2]; first compound 2 µM) | relative viability ([3]; first compound 0.02 µM) | relative viability ([3]; first compound 0.06325 µM) | relative viability ([3]; first compound 0.2 µM) | relative viability ([3]; first compound 0.6325 µM) | relative viability ([3]; first compound 2 µM) | relative viability ([4]; first compound 0.253 µM) | relative viability ([4]; first compound 0.8 µM) | relative viability ([4]; first compound 2.53 µM) | relative viability ([4]; first compound 8 µM)
HCC-366 | 0.445 | 0.387 | 0.423 | 0.364 | 0.426 | 0.305 | 0.394 | 0.386 | 0.352 | 1.15 | 0.806 | 1.01 | 0.643 | 0.594 | 0.225 | 0.291 | 0.386 | 0.247
HCC-827 | 0.397 | 0.291 | 0.399 | 0.328 | 0.545 | 0.94 | 0.861 | 0.73 | 0.718 | 0.701 | 0.728 | 0.773 | 0.526 | 0.644 | 0.395 | 0.281 | 0.366 | 0.355
HOP-62 | 0.834 | 0.542 | 0.816 | 0.863 | 0.819 | 0.516 | 0.612 | 0.561 | 0.372 | 0.836 | 0.813 | 0.885 | 0.671 | 0.664 | 0.677 | – | 0.771 | 0.443
IA-LM | 0.131 | 0.137 | 0.127 | 0.12 | 1.09 | 0.844 | 0.791 | 0.899 | 0.878 | – | – | – | – | – | 0.0892 | 0.0763 | 0.1 | 0.0794
LC-2-ad | 0.318 | 0.242 | 0.307 | 0.218 | 0.835 | 0.702 | 0.7 | 0.688 | 0.512 | 1.03 | 0.756 | 0.758 | 0.698 | 0.645 | 0.427 | 0.376 | 0.381 | 0.328
LCLC-97TM1 | 0.623 | – | 0.67 | 0.447 | 0.682 | 0.602 | 0.533 | 0.532 | 0.47 | 0.603 | 0.451 | 0.442 | 0.418 | 0.497 | 0.159 | – | 0.174 | 0.191
LCLC-103H | – | – | – | – | 0.787 | 0.773 | 0.761 | 0.776 | 0.784 | 0.553 | 0.417 | 0.491 | 0.502 | 0.472 | 0.807 | 0.867 | 0.761 | 0.711
LK-2 | 0.873 | 0.928 | 0.808 | 0.915 | 0.34 | 0.364 | 0.24 | 0.266 | 0.251 | 0.174 | 0.214 | 0.239 | 0.219 | 0.199 | 0.603 | 0.592 | 0.627 | 0.49
LOU-NH91 | – | 0.577 | 0.697 | 0.705 | 0.983 | 0.932 | 0.898 | 0.764 | 0.693 | 0.735 | 0.822 | 0.703 | 0.676 | 0.616 | – | 0.86 | 0.862 | 0.997
LU99A | 0.836 | 0.723 | 0.858 | 0.582 | 0.573 | 0.583 | 0.445 | 0.388 | 0.381 | 0.324 | 0.286 | 0.292 | 0.312 | 0.249 | 0.459 | 0.5 | 0.498 | 0.466
NCI-H358 | – | – | – | – | 0.669 | 0.562 | 0.478 | 0.313 | 0.264 | 0.925 | 0.745 | 0.362 | 0.349 | 0.329 | 0.714 | 0.751 | 0.758 | 0.795
NCI-H522 | – | – | – | – | 1.12 | 0.897 | 0.954 | 0.918 | 0.916 | 0.842 | 0.82 | 0.819 | 0.916 | 0.79 | – | – | – | –
NCI-H650 | – | – | – | – | 0.752 | 0.528 | 0.416 | 0.334 | 0.308 | 0.611 | 0.5 | 0.454 | 0.455 | 0.364 | 0.981 | 0.766 | 0.773 | 0.786
NCI-H661 | – | – | – | – | 0.837 | 0.826 | 0.796 | 0.775 | 0.814 | 0.706 | 0.767 | 0.714 | 0.648 | 0.561 | 0.566 | 0.531 | 0.62 | 0.469
NCI-H1299 | 0.895 | 0.932 | 0.894 | 0.835 | – | – | – | – | – | – | – | – | – | – | 0.896 | 0.802 | 0.807 | 0.856
NCI-H1563 | – | – | – | – | – | – | – | – | – | 0.813 | 0.797 | 0.788 | 0.891 | 0.836 | 1.18 | 1.1 | 1.35 | 1.21
NCI-H1623 | – | – | – | – | – | – | – | – | – | 0.433 | 0.429 | 0.456 | 0.462 | 0.453 | – | – | – | –
NCI-H1648 | – | – | – | – | 0.316 | 0.661 | 0.553 | 0.365 | 0.354 | 0.28 | 0.268 | 0.262 | 0.242 | 0.267 | – | – | – | –
NCI-H1650 | – | 0.895 | 0.816 | 0.868 | 0.51 | 0.641 | 0.735 | 0.841 | 0.704 | 0.606 | 0.633 | 0.662 | 0.639 | 0.706 | – | – | – | –
NCI-H1703 | 0.9 | 0.987 | 0.783 | 0.71 | – | – | – | – | – | – | – | – | – | – | 0.714 | 0.686 | 0.803 | 0.737
NCI-H1792 | 0.4 | 0.409 | 0.409 | 0.482 | – | – | – | – | – | 0.71 | 0.68 | 0.752 | 0.729 | 1.08 | 0.324 | 0.409 | 0.36 | 0.401
NCI-H2170 | 0.464 | 0.421 | 0.556 | 0.417 | 0.923 | 0.786 | 0.963 | 0.724 | 0.777 | 0.749 | 0.738 | 0.736 | 0.773 | 0.571 | – | – | – | –
NCI-H2342 | – | – | – | – | 0.851 | 0.79 | 0.75 | 0.702 | 0.843 | 0.627 | 0.708 | 0.632 | 0.576 | 0.599 | – | – | – | –
SW 900 | – | – | – | – | 0.37 | 0.35 | 0.488 | 0.515 | 0.568 | 0.619 | 0.505 | 0.544 | 0.476 | 0.322 | – | – | – | –

Source: the supplement of paper PMC10307832
